Broadly, the IC50 is the midpoint of a concentration-inhibition curve.

This note sets out measurements from patent US20250122174A1 (Shenzhen Yuanli Shenwan Innovative Medicine Co., Ltd., priority 2022, published 2025).

The target in the test is HPK1 (Homo sapiens (Human), UniProt Q92918). Kind of test: HPK1 Inhibition Assay (ADP-Glo kinase assay). Format: biochemical. The conditions noted are these: ATP 10 μM. Here is the method: A stock solution of 10 mM test compound was prepared in DMSO. The compound was prepared by 5-fold and 10-point serial dilutions with HPK1 kinase assay buffer. The HPK1 kinase assay buffer contained 40 mM Tris, pH 7.5; 20 mM MgCl2, 0.1 mg/ml BSA, and 50 μM DTT. 7.5 ng/μl of Active HPK1 (Promega, V4098) and 0.1 μg/ml MBP substrate protein were added to the reaction system. The final concentration of ATP in the HPK1 kinase reaction system was 10 μM. Serial diluted compounds were transferred to the reaction system and incubated at room temperature for 1 hr. 5 μL of ADP-Glo™ Reagent (Promega, V9101) was added and incubated for 40 min to stop the kinase reaction and deplete the unconsumed ATP. […] The luminescence was measured with a plate-reading luminometer.
Sequence of HPK1 (Q92918 1-346 limits assumed): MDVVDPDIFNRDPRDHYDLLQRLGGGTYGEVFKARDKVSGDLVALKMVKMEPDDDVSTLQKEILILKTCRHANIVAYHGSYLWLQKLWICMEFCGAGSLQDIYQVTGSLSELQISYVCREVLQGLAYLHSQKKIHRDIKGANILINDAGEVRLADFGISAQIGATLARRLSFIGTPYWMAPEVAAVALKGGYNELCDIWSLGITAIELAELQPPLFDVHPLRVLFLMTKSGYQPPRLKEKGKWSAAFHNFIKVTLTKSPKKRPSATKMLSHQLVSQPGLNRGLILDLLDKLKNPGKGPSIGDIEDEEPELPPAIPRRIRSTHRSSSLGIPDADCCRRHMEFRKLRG
(In ADP-Glo the light output rises with the ADP produced.)
As for `COc1ccc(F)cc1-n1nccc(C(=O)Nc2ccc3c(nc(C)n3C)c2N2CC[C@H](N)C2)c1=O` [Example 50, (S)—N-(4-(3-aminopyrrolidin-1-yl)-1,2-dimethyl-1H-benzo[d]imidazol-5-yl)-2-(5-fluoro-2-methoxyphenyl)-3-oxo-2,3-dihydropyridazine-4-carboxamide], the IC50 was less than 100 nM.

As to `COc1cccc(F)c1-n1cccc(C(=O)Nc2cc(F)ccc2N2C[C@H]3C[C@@H]2CN3)c1=O` [Example 51, N-(2-((1R,4R)-2,5-diazabicyclo[2.2.1]heptan-2-yl)-5-fluorophenyl)-1-(2-fluoro-6-methoxyphenyl)-2-oxo-1,2-dihydropyridine-3-carboxamide], the IC50 is less than 100 nM.

Molecule `COc1cccc(F)c1-n1cccc(C(=O)Nc2cc(F)c3nn(C)cc3c2N2C[C@H]3C[C@@H]2CN3)c1=O` [Example 52, N-(4-((1R,4R)-2,5-diazabicyclo[2.2.1]heptan-2-yl)-7-fluoro-2-methyl-2H-indazol-5-yl)-1-(2-fluoro-6-methoxyphenyl)-2-oxo-1,2-dihydropyridine-3-carboxamide] yielded a concentration for half-maximal inhibition (IC50) of 100 to 1000 nM.

For `COc1cccc(F)c1-n1cccc(C(=O)Nc2cc(F)c3c(cnn3C)c2N2C[C@H]3C[C@@H]2CN3)c1=O` [Example 53, N-(4-((1R,4R)-2,5-diazabicyclo[2.2.1]heptan-2-yl)-7-fluoro-1-methyl-1H-indazol-5-yl)-1-(2-fluoro-6-methoxyphenyl)-2-oxo-1,2-dihydropyridine-3-carboxamide], the IC50 was 100 to 1000 nM.

In turn, `COc1cccc(F)c1-n1cccc(C(=O)Nc2ccc3c(nc(C)n3C)c2N2CCC[C@H]2CN)c1=O` [Example 54, (S)-N-(4-(2-(aminomethyl)pyrrolidin-1-yl)-1,2-dimethyl-1H-benzo[d]imidazol-5-yl)-1-(2-fluoro-6-methoxyphenyl)-2-oxo-1,2-dihydropyridine-3-carboxamide] registered an IC50 of less than 100 nM.

For the molecule `COc1cccc(F)c1-c1cccc(C(=O)Nc2cc(F)ccc2N2C[C@H]3C[C@@H]2CN3)[n+]1[O-]` [Example 55, 2-((2-((1R,4R)-2,5-diazabicyclo[2.2.1]heptan-2-yl)-5-fluorophenyl)carbamoyl)-6-(2-fluoro-6-methoxyphenyl)pyridine 1-oxide], the half-inhibitory concentration (IC50) is less than 100 nM.

`COc1cccc(F)c1-c1cccc(C(=O)Nc2ccc3c(cnn3C)c2N2C[C@H]3C[C@@H]2CN3)[n+]1[O-]` [Example 56, 2-((4-((1R,4R)-2,5-diazabicyclo[2.2.1]heptan-2-yl)-1-methyl-1H-indazol-5-yl)carbamoyl)-6-(2-fluoro-6-methoxyphenyl)pyridine 1-oxide]: the IC50 was less than 100 nM.

`COc1cccc(F)c1-c1cccc(C(=O)Nc2ccc3nn(C)cc3c2N2C[C@H]3C[C@@H]2CN3)[n+]1[O-]` [Example 57, 2-((4-((1R,4R)-2,5-diazabicyclo[2.2.1]heptan-2-yl)-2-methyl-2H-indazol-5-yl)carbamoyl)-6-(2-fluoro-6-methoxyphenyl)pyridine 1-oxide] registered an IC50 of less than 100 nM.

The molecule `COc1cccc(F)c1-c1cccc(C(=O)Nc2cc(F)c3c(cnn3C)c2N2CC[C@H](N)C2)[n+]1[O-]` [Example 58, 2-((4-((S)-3-aminopyrrolidin-1-yl)-7-fluoro-1-methyl-1H-indazol-5-yl)carbamoyl)-6-(2-fluoro-6-methoxyphenyl)pyridine 1-oxide] returned an IC50 of less than 100 nM.

The molecule `COc1cccc(F)c1-c1cccc(C(=O)Nc2cc(F)c3nn(C)cc3c2N2CC[C@H](N)C2)[n+]1[O-]` [Example 59, 2-((4-((S)-3-aminopyrrolidin-1-yl)-7-fluoro-2-methyl-2H-indazol-5-yl)carbamoyl)-6-(2-fluoro-6-methoxyphenyl)pyridine 1-oxide] gave an IC50 of less than 100 nM.

As for `COc1cccc(F)c1-c1cccc(C(=O)Nc2ccc3c(nc(C)n3C)c2N2C[C@@H]3C[C@H]2CN3)[n+]1[O-]` [Example 60, 2-((4-((1S,4S)-2,5-diazabicyclo[2.2.1]heptan-2-yl)-1,2-dimethyl-1H-benzo[d]imidazol-5-yl)carbamoyl)-6-(2-fluoro-6-methoxyphenyl)pyridine 1-oxide], the IC50 was less than 100 nM.

As for `COc1cccc(F)c1-c1cccc(C(=O)Nc2ccc3c(nc(C)n3C)c2N2CCC[C@H]2CN)[n+]1[O-]` [Example 61, 2-((4-((S)-2-(aminomethyl)pyrrolidin-1-yl)-1,2-dimethyl-1H-benzo[d]imidazol-5-yl)carbamoyl)-6-(2-fluoro-6-methoxyphenyl)pyridine 1-oxide], the IC50 was less than 100 nM.

With `COc1cccc(F)c1-c1cccc(C(=O)Nc2ccc3c(nc(C)n3C)c2N2CC[C@H](N)C2)[n+]1[O-]` [Example 62, 2-((4-((S)-3-aminopyrrolidin-1-yl)-1,2-dimethyl-1H-benzo[d]imidazol-5-yl)carbamoyl)-6-(2-fluoro-6-methoxyphenyl)pyridine 1-oxide], the concentration for half-maximal inhibition (IC50) lay within 100 to 1000 nM.

Consider `COc1cccc(F)c1-c1cccc(C(=O)Nc2cc(F)c3nn(C)cc3c2N2C[C@@H](N)C[C@H]2CO)[n+]1[O-]` [Example 63, 2-((4-((2S,4S)-4-amino-2-(hydroxymethyl)pyrrolidin-1-yl)-7-fluoro-2-methyl-2H-indazol-5-yl)carbamoyl)-6-(2-fluoro-6-methoxyphenyl)pyridine 1-oxide], for which the IC50 is less than 100 nM.

For the molecule `COc1cccc(F)c1-c1nc(C(=O)Nc2cc(F)ccc2N2C[C@@H]3C[C@H]2CN3)cs1` [Example 64, N-(2-((1S,4S)-2,5-diazabicyclo[2.2.1]heptan-2-yl)-5-fluorophenyl)-2-(2-fluoro-6-methoxyphenyl)thiazole-4-carboxamide], the IC50 is 100 to 1000 nM.

As for `COc1cccc(F)c1-n1nc(C(=O)Nc2ccc3c(nc(C)n3C)c2N2CC[C@H](N)C2)ccc1=O` [Example 66, (S)—N-(4-(3-aminopyrrolidin-1-yl)-1,2-dimethyl-1H-benzo[d]imidazol-5-yl)-1-(2-fluoro-6-methoxyphenyl)-6-oxo-1,6-dihydropyridazine-3-carboxamide], the IC50 was less than 100 nM.

In the case of `Cc1nc2c(N3CCC[C@@H](N)C3)c(NC(=O)c3ccc(=O)n(-c4c(F)cccc4F)n3)ccc2n1C` [Example 67, (R)—N-(4-(3-aminopiperidin-1-yl)-1,2-dimethyl-1H-benzo[d]imidazol-5-yl)-1-(2,6-difluorophenyl)-6-oxo-1,6-dihydropyridazine-3-carboxamide], the IC50 was less than 100 nM.

For the molecule `Cc1nc2c(N3C[C@@H](N)C[C@H]3CO)c(NC(=O)c3ccc(=O)n(-c4c(F)cccc4F)n3)ccc2n1C` [Example 68, N-(4-((2S,4S)-4-amino-2-(hydroxymethyl)amidazole-1-yl)-1,2-dimethyl-1H-benzo[d]amidazole-5-yl)-1-(2,6-difluorophenyl)-6-oxo-1,6-dihydropyridazine-3-carboxamide], the IC50 lay in the range of 100 to 1000 nM.

`Cc1nc2c(N3CCN(C)CC3)c(NC(=O)c3ccc(=O)n(-c4c(F)cccc4F)n3)ccc2n1C` [Example 69, 1-(2,6-difluorophenyl)-N-(1,2-dimethyl-4-(4-methylpiperazin-1-yl)-1H-benzo[d]imidazol-5-yl)-6-oxo-1,6-dihydropyridazine-3-carboxamide] returned an IC50 of 100 to 1000 nM.

The molecule `Cc1nc2c(N(C)[C@@H]3CCCNC3)c(NC(=O)c3ccc(=O)n(-c4c(F)cccc4F)n3)ccc2n1C` [Example 70, (R)-1-(2,6-difluorophenyl)-N-(1,2-dimethyl-4-(methyl(piperidin-3-yl)amino)-1H-benzo[d]imidazol-5-yl)-6-oxo-1,6-dihydropyridazine-3-carboxamide] yielded an IC50 of less than 100 nM.

In turn, `Cc1nc2c(N3CCNCC3)c(NC(=O)c3ccc(=O)n(-c4c(F)cccc4F)n3)ccc2n1C` [Example 71, 1-(2,6-difluorophenyl)-N-(1,2-dimethyl-4-(piperazin-1-yl)-1H-benzo[d]imidazol-5-yl)-6-oxo-1,6-dihydropyridazine-3-carboxamide] yielded an IC50 of less than 100 nM.

Molecule `Cc1nc2c(N3CC[C@H](N)C3)c(NC(=O)c3ccc(=O)n(-c4c(F)cccc4F)n3)ccc2n1C` [Example 72, (S)-N-(4-(3-aminopyrrolidin-1-yl)-1,2-dimethyl-1H-benzo[d]imidazol-5-yl)-1-(2,6-difluorophenyl)-6-oxo-1,6-dihydropyridazine-3-carboxamide] showed an IC50 of less than 100 nM.

In turn, `Cc1nc2c(N3CC[C@@H](N)C3)c(NC(=O)c3ccc(=O)n(-c4c(F)cccc4F)n3)ccc2n1C` [Example 73, (R)-N-(4-(3-aminopyrrolidin-1-yl)-1,2-dimethyl-1H-benzo[d]imidazol-5-yl)-1-(2,6-difluorophenyl)-6-oxo-1,6-dihydropyridazine-3-carboxamide] had an IC50 of less than 100 nM.

Molecule `Cc1nc2c(N3CCC(N)CC3)c(NC(=O)c3ccc(=O)n(-c4c(F)cccc4F)n3)ccc2n1C` [Example 74, N-(4-(4-aminopiperidin-1-yl)-1,2-dimethyl-1H-benzo[d] 98 midazole-5-yl)-1-(2,6-difluorophenyl)-6-oxo-1,6-dihydropyridazine-3-carboxamide] returned an IC50 of less than 100 nM.

Take `Cc1nc2c(N3CCC(C)(N)CC3)c(NC(=O)c3ccc(=O)n(-c4c(F)cccc4F)n3)ccc2n1C` [Example 76, N-(4-(4-amino-4-methylpiperidin-1-yl)-1,2-dimethyl-1H-benzo[d]imidazol-5-yl)-1-(2,6-difluorophenyl)-6-oxo-1,6-dihydropyridazine-3-carboxamide]: the IC50 is less than 100 nM.

Turning to `Cc1nc2c(N3CC[C@](C)(N)C3)c(NC(=O)c3ccc(=O)n(-c4c(F)cccc4F)n3)ccc2n1C` [Example 77, (S)-N-(4-(3-amino-3-methylpyrrolidin-1-yl)-1,2-dimethyl-1H-benzo[d]imidazol-5-yl)-1-(2,6-difluorophenyl)-6-oxo-1,6-dihydropyridazine-3-carboxamide], the IC50 is less than 100 nM.
